≈ marks a conversion by molar mass, not a printed value.
Tests used:
Escherichia coli = assay: Septation during reproduction, E. coli (FIG. 3); assay type: cell-based
[1] = test system: C. crescentus CB15N cells; assay: Reversibility of cell division inhibition after wash-out; assay type: cell-based, Caulobacter crescentus; conditions: pre-incubated with 6 μM for 2.5 hours, then diffused out on agarose pad, FIG. 10
Protocol: To test whether the inhibitory effect of compound 1 is reversible, the compound was washed out of pre-treated cells and their growth and division monitored using microscopy. A culture of C. crescentus CB15N cells was pre-incubated with 6 μM compound 1 for 2.5 hours at 30° C. A small aliquot of this culture was applied to an agarose pad (2% w/v agarose in PYE media), and the cells were imaged over time while incubating them on the microscope stage at 30° C.

Vibrio cholerae = assay: Minimum inhibitory concentration, pathogenic strain Vibrio cholerae; assay type: cell-based
[2] = test system: C. crescentus strain (MT97) that expresses mipZ-yfp; assay: In vivo screen of cell morphology (septation) by microscopy, C. crescentus; assay type: cell-based, Caulobacter crescentus; conditions: 20 μM in agarose pad, FIG. 3
Protocol: In vivo screen with a Caulobacter crecentus strain that expresses MipZ-YFP: Hits from the in vitro screens were tested for their activity in vivo. A C. crescentus strain (MT97) that expresses mipZ-yfp from the native mipZ promoter was used. An overnight culture of MT97 was diluted to an OD600 of ˜0.1, and the diluted culture was further grown for at least an hour prior to treatment with the compound. Compounds were mixed with a solution of 1% agarose in M2G medium to achieve a final concentration of 20 μM. Cells were inoculated onto the surface of the compound-containing agarose pad (1 μL inoculum per pad), and we observed the cell morphology and localization of MipZ-YFP for a period of 24 hrs. In the time between microscopic observations, the inoculated pads were kept at 30° C. to promote growth.

E. coli ΔtolC [3] = assay: Cephalexin-induced cell lysis and filamentation (optical density); assay type: cell-based, Escherichia coli; conditions: 10 μg/mL cephalexin plus compound 1 (0 to 12.5 μM), FIG. 9C
C. crescentus CB15N = assay: Viability of C. crescentus after exposure to antibiotics (colony counts); assay type: cell-based, Caulobacter crescentus; conditions: antibiotic at twice its MIC, FIG. 7
Protocol: Kanamycin was used as a control since it is a known bacteriocidal agent. An overnight culture of [MUT] in PYE medium was diluted to an optical density of 0.1 (λ=600 nm) and incubated further for 1.5 hrs. After the incubation, the culture was aliquoted into 15 mL conical tubes (1 mL of culture per aliquot) and treated with antibiotics. The final concentration of the antibiotics was twice its minimum inhibitory concentration. Upon addition of antibiotics, the culture tubes were wrapped with aluminum foil and shaken at 250 rpm at 30° C. At every 30 min, 100 μL was withdrawn from each aliquot and serially diluted five times in [MUT] medium. 100 μL of the fifth dilution was spread on PYE plates, the plates were incubated for two days at 30° C., and the number of colonies formed on the plates was counted.

E. coli ΔtolC [4] = assay: Minimum inhibitory concentration (macrodilution), E. coli ΔtolC; conditions: Escherichia coli
Protocol: Determination of the minimum inhibitory concentration (MIC): The MIC of the small molecule hits was determined using a macrodilution method. All cultures were grown in M8 medium at 37° C., except for C. crescentus (strain CB15N) which was cultured in PYE media at 30° C. C. crescentus and E. coli cultures were incubated while shaking at 200 rpm. Pathogenic clinical strains were grown in static conditions. All cultures were grown for 17 hrs.

[5] = test system: C. crescentus (strain CB15N); assay: Minimum inhibitory concentration (macrodilution), C. crescentus CB15N; assay type: cell-based; conditions: Caulobacter vibrioides
Protocol: (§1) All cultures were grown for 17 hrs.
Minimum inhibitory concentration for compounds 1, 6, 7, 8, and 9, determined as in Example 3 using the C. crescentus CB15N strain.

[6] = test system: FtsB, FtsL, FtsK and FtsI localization in C. crescentus cells; assay: Localization of fluorescently-tagged Fts proteins; assay type: cell-based, Caulobacter crescentus; conditions: late division stage cells vs DMSO control, FIG. 8C
Protocol: Strains of C. crescentus that express fluorescently-tagged Fts proteins (FtsB, FtsL, FtsK, and FtsI) were cultured overnight. The overnight cultures were diluted 10-fold and incubated for an hour at 30° C. prior to compound treatment. Cells were induced with xylose (0.3%) to trigger the expression of fluorescently-tagged Fts proteins. After inducing with xylose for 45 min, cells were mounted on agarose pads and imaged as described in Example 4.
To analyze changes in the localization of Fts proteins, cells in the late division stage were selected for image analysis. At this stage of the cell cycle, cells have a visible constriction at the midcell, and the Fts proteins localize to the constriction site. […] Within the population of cells selected for a visible constriction, cells that have a single fluorescence focus of Fts proteins were counted. […] These cells have clear constrictions at the midcell as shown in brightfield images. In the fluorescence channel, the signal from Venus-FtsI is localized at the septum in the DMSO sample. In contrast, the fluorescence signal is more diffuse throughout the cell body in the sample treated with compound 1. […] The observed decrease in Fts protein localization in the presence of compound 1 was statistically significant when compared to the DMSO solvent control samples.

[7] = test system: C. crescentus CB15N pMT182 (PxylX-mipZ); assay: Cell length microscopy with MipZ overexpression; assay type: cell-based, Caulobacter crescentus; conditions: 0.2% xylose induction, FIG. 4
Protocol: (§2) Optical microscopy and image analysis: A Nikon Eclipse TE2000E inverted microscope with a Perfect Focus system and an encoded z-stage for phase contrast and epifluorescence microscopy was used. To observe the effect of Compound 1 on cell division, freshly grown cells from an overnight culture were treated with the compound. Small aliquots (1-2 μL) of the cells dosed with Compound 1 were mounted on 1% agarose pads for microscopy. To visualize FtsZ localization, MT196 cells (C. crescentus CB15N PvanA-ftsZ-yfp) were induced with vanilate (0.5 mM) for 1 hr prior to imaging. PSICIC, a MATLAB-based script, was used to measure cell lengths (n≧100) for the following strains of C. crescentus: CB15N, CB15N pMT182 (PxylX-mipZ, Cm^R), and CB15N ΔzapA. The CB15N pMT182 strain was treated with 0.2% xylose to induce overexpression of MipZ. For cells that could not be accurately detected by PSICIC, the cell length was manually traced in MetaMorph or ImageJ and the pixel traces were converted to microns. GraphPad InStat was used for statistical analysis of cell length distributions.

Acinetobacter baumannii = assay: Minimum inhibitory concentration, pathogenic strain Acinetobacter baumannii; assay type: cell-based
Protocol: as §1

Shigella boydii = assay: Minimum inhibitory concentration, pathogenic strain Shigella boydii; assay type: cell-based
Protocol: as §1

[8] = test system: C. crescentus CB15N ΔzapA; assay: Cell length microscopy in ΔzapA strain; assay type: cell-based, Caulobacter crescentus; conditions: FIGS. 5 and 6
Protocol: as §2

[9] = test system: MRSA strain of Staphylococcus aureus; conditions: normally lethal dose of MRSA; cited from earlier work
E. coli = conditions: reported in the literature; cited from earlier work
[10] = C. crescentus CB15N strain, determined as in Example 3

SMILES: Cc1nc2ccccc2n1CCC(=O)N/N=C/c1c(O)ccc2ccccc12 [Compound 1]
- effect on septation (Escherichia coli): inhibits septation during reproduction
- reversibility of inhibitory effect on cell division [1]: reversible
- MIC (Vibrio cholerae): 0.4 µM (≈ 0.149 µg/mL)
- effect on septation / cell morphology [2]: inhibits septation during reproduction in C. crescentus
- cell filamentation and lysis on co-treatment with cephalexin (E. coli ΔtolC [3]): elongated slowly and did not undergo cell lysis
- colony forming units over time (C. crescentus CB15N): did not significantly alter the colony forming units over time
- MIC (E. coli ΔtolC [4]): 13.5 µM (≈ 5.03 µg/mL)
- MIC ([5]; C. crescentus): 5 µM (≈ 1.86 µg/mL)
- MIC [5, 10]: 5 µM (≈ 1.86 µg/mL)
- population of cells with midcell localization of Fts proteins [6]: decreased the population of cells with a midcell localization of Fts proteins
- effect on cell elongation caused by MipZ overexpression [7]: rescues cell elongation caused by MipZ overexpression
- MIC (Acinetobacter baumannii): 25 µM (≈ 9.31 µg/mL)
- MIC (Shigella boydii): 50 µM (≈ 18.6 µg/mL)
- effect on cell length in ΔzapA strain [8]: restores cell lengths to near normal lengths

SMILES: O=C(CCn1c(C(F)(F)F)nc2ccccc21)N/N=C/c1c(O)ccc2ccccc12 [Compound 6]
- MIC [5, 10]: 7.5 µM (≈ 3.2 µg/mL)

SMILES: COc1ccc2ccccc2c1/C=N/NC(=O)CCn1c(C(F)(F)F)nc2ccccc21 [Compound 7]
- MIC [5, 10]: > 20 µM

SMILES: COc1ccc2ccccc2c1/C=N/NC(=O)CCn1c(C)nc2ccccc21 [Compound 8]
- MIC [5, 10]: > 20 µM

SMILES: Cc1nc2ccccc2n1CCC(=O)N/N=C/c1ccccc1O [Compound 9]
- MIC [5, 10]: 15 µM (≈ 4.84 µg/mL)

SMILES: NC(=O)c1c(F)ccc(OCc2nc3cc(Cl)cnc3s2)c1F [PC190723]
- protection of mice from lethal infection [9]: protect mice from a normally lethal dose of the MRSA strain of Staphylococcus aureus
- MIC (E. coli): > 180 µM

From patent US9282738B2, “Antimicrobial compositions and methods of use thereof” (WISCONSIN ALUMNI RESEARCH FOUNDATION, priority 2011, dated 2016)
